Drawing on patent publication US11339142B2, “Di-substituted pyrazole compounds for the treatment of diseases” (FGH BIOTECH, INC., priority 2016, dated 2022), this text covers inhibition and IC50 for ten compounds.

One assay has as its system PCSK9 expression. The assay is described as follows: Quantitative PCR (qPCR) inhibition assay, PCSK9 mRNA expression in Hep G2 cells. The settings on record: Homo sapiens, HepG2 cells, 24 hours incubation, mRNA by qPCR; for inhibition at 0.32 µM: 320 nM, read-out: PCSK9 Inhibition Percentage (%) at 320 nM. The assay is classed as cell-based. Here is the method: Hep G2 cells were obtained from ATCC and grown in DMEM supplemented with 5% FBS in a 5% CO2 incubator at 37° C. For the assay the cells were plated in 24 well plates at a concentration of 100,000 cells/well in DMEM with 5% FBS. The compounds were serially diluted in DMSO from 0.1 to 20 mM and then diluted 1:1000 in growth medium. The medium was added to the cells in duplicate 24 hours after plating. After 24 hours of incubation the RNA was isolated from the cells using the illustra RNAspin Mini kit (GE Healthcare). For the quantitative PCR the RNA was analyzed using the Power SYBR® Green PCR Master Mix (Applied Biosystems) and gene specific primers. The reaction was run on a StepOnePlus Real-Time PCR System (Thermo Fisher Scientific) and the instrument software was used to determine the Ct values. The fold change of mRNA expression relative to the vehicle control was calculated. Primer sequence was as follows: PCSK9, 5′-[…]-3′/5′-[…]-3′.
(§1) All data for Biological Examples 1a and 1b were measured in HepG2 cells. % inhibition of SCD1 expression, % inhibition of PCSK9 expression, and PCSK9 IC50 data are provided in Table 1. NA means the compound was not active at the concentration tested.
A general note: Quantitative PCR measures a nucleic acid by following its amplification.

For a further assay, the system named is SCD1 expression. The assay is described as follows: Quantitative PCR (qPCR) inhibition assay, SCD1 mRNA expression in Hep G2 cells. The class given is cell-based. The settings on record: Homo sapiens, HepG2 cells, 24 hours incubation, mRNA by qPCR, read-out: SCD1 Inhibition Percentage (%) at 1 μM. Here is the method: Hep G2 cells were obtained from ATCC and grown in DMEM supplemented with 10% FBS in a 5% CO2 incubator at 37° C. For the assay the cells were plated in 96 well plates at a concentration of 75,000 cells/well in DMEM with 5% FBS. The compounds were serially diluted in DMSO from 30 to 0.1 mM and then diluted 1:1000 in growth medium. The medium was added to the cells in duplicate 24 hours after plating. After 24 hours of incubation the RNA was isolated from the cells using the RNAqueous®-96 Total RNA Isolation Kit (Ambion). The eluted RNA was reverse transcribed using the Cells-to-Ct kit reverse transcriptase (Ambion). For the quantitative PCR the cDNA was analyzed using the Power SYBR® Green PCR Master Mix (Applied Biosystems) and gene specific primers. The reaction was run on an ABI7300 thermocycler and the instrument software was used to determine the Ct values. The fold change of mRNA expression relative to the vehicle control was calculated using the method by Livak. Primer sequence was as follows: SCD1, 5′-[…]-3′/5′-[…]-3′.
as §1

In the case of `CCCn1cc(-n2cc(-c3ccc(OC(C)CC)nc3C)cn2)ccc1=O` (stereo not drawn) [Example 3], the inhibition (usually the drop in the measured response relative to a control, in per cent) at 0.32 µM in the assay with PCSK9 expression is 10 to 40%. Also, in the assay on SCD1 expression, the inhibition at 1 µM is at least 40%.

Regarding `CCCn1cc(-n2cc(-c3ccc(S(=O)(=O)C4CCC4)cc3F)cn2)ccc1=O` [Example 22], the IC50 (in general, the point on the concentration scale where inhibition reaches its midpoint) with PCSK9 expression fell in the range of 150 to 600 nM. Moreover, in the assay on SCD1 expression, the inhibition at 1 µM is at least 40%.

With `CCCn1cc(-n2cc(-c3ccc(S(=O)(=O)C(C)C)cc3Cl)cn2)ccc1=O` [Example 17], in the assay on PCSK9 expression, the inhibition at 0.32 µM is at least 40% and the IC50 lay within 150 to 600 nM. In addition, in the assay with SCD1 expression, the inhibition at 1 µM was at least 40%.

`CCCn1cc(-n2cc(-c3ccc(S(=O)(=O)C4CCC4)cc3Cl)cn2)ccc1=O` [Example 23]: the concentration for half-maximal inhibition (IC50) with PCSK9 expression is at most 150 nM. In addition, the inhibition at 1 µM in the assay with SCD1 expression is at least 40%.

On to `CCCn1cc(-n2cc(-c3ccc(S(=O)(=O)CC(C)C)cc3Cl)cn2)ccc1=O` [Example 18], for which the inhibition at 0.32 µM in the assay on PCSK9 expression lay in the range of 10 to 40%. Moreover, in the assay with SCD1 expression, the inhibition at 1 µM was in the range of 10 to 40%.

Regarding `CCCn1cc(-n2cc(-c3ccc(O[C@H](C)CC)nc3C)cn2)ccc1=O` [Example 10], the inhibition at 0.32 µM in the assay with PCSK9 expression was at least 40%. Besides, in the assay with SCD1 expression, the inhibition at 1 µM was at least 40%.

Take `CCCn1cc(-n2cc(-c3ccc(OCC(C)C)nc3C)cn2)ccc1=O` [Example 5]: in the assay on PCSK9 expression, the inhibition at 0.32 µM was at least 40%. Besides, the inhibition at 1 µM in the assay on SCD1 expression is at least 40%.

As to `CCCn1cc(-n2cc(-c3ccc(O[C@@H](C)CC)nc3C)cn2)ccc1=O` [Example 9], the inhibition at 0.32 µM in the assay with PCSK9 expression is at least 40%. The inhibition at 1 µM in the assay with SCD1 expression was at least 40%.

Consider `CCCn1cc(-n2cc(-c3ccc(OCC4CC4)nc3C)cn2)ccc1=O` [Example 6], for which, in the assay with PCSK9 expression, the inhibition at 0.32 µM lay in the range of 10 to 40% and the 50% inhibitory concentration (IC50) is 150 to 600 nM. In the assay on SCD1 expression, the inhibition at 1 µM is at least 40%.

Take `CCCn1cc(-n2cc(-c3ccc(OC4CCCC4)nc3C)cn2)ccc1=O` [Example 1, 5-(4-(6-(cyclopentyloxy)-2-methylpyridin-3-yl)-1H-pyrazol-1-yl)-1-propylpyridin-2(1H)-one]: the inhibition at 1 µM with SCD1 expression is at least 40%.
